According to patent publication US9938269B2, “Inhibitor compounds of phosphodiesterase type 10A” (ABBVIE INC., priority 2011, dated 2018):
pIC50: −log10 of the molar value. Where a name gives a salt, the structure may show the parent alone.

Experiments:
[1] = Determination of the microsomal half-life, human liver microsomes; details: human, liver microsomes, pH 7.4
[2] = Determination of the microsomal half-life, rat liver microsomes; details: rat, liver microsomes, pH 7.4
[3] = target: T1, PDE10A (human) (Homo sapiens, UniProt Q9Y233); assay: Measurement of PDE activity (HTRF cAMP kit), human PDE10A; type: biochemical; details: PDE enzymatic reaction, substrate 20 nM for PDE10, 60 minutes at 29 C
T1 construct: purchased BPS Bioscience
Summary of the method: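 HTRF detection of cAMP left after hydrolysis, expressed as percent of uninhibited control to derive IC50. Reaction: serially diluted inhibitor mixed with recombinant enzyme, started with 20 nM cAMP, 60 min at 29 °C in Tris-HCl pH 7.5 buffer containing MgCl2 and BSA.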

T1 sequence (Q9Y233 whole entry): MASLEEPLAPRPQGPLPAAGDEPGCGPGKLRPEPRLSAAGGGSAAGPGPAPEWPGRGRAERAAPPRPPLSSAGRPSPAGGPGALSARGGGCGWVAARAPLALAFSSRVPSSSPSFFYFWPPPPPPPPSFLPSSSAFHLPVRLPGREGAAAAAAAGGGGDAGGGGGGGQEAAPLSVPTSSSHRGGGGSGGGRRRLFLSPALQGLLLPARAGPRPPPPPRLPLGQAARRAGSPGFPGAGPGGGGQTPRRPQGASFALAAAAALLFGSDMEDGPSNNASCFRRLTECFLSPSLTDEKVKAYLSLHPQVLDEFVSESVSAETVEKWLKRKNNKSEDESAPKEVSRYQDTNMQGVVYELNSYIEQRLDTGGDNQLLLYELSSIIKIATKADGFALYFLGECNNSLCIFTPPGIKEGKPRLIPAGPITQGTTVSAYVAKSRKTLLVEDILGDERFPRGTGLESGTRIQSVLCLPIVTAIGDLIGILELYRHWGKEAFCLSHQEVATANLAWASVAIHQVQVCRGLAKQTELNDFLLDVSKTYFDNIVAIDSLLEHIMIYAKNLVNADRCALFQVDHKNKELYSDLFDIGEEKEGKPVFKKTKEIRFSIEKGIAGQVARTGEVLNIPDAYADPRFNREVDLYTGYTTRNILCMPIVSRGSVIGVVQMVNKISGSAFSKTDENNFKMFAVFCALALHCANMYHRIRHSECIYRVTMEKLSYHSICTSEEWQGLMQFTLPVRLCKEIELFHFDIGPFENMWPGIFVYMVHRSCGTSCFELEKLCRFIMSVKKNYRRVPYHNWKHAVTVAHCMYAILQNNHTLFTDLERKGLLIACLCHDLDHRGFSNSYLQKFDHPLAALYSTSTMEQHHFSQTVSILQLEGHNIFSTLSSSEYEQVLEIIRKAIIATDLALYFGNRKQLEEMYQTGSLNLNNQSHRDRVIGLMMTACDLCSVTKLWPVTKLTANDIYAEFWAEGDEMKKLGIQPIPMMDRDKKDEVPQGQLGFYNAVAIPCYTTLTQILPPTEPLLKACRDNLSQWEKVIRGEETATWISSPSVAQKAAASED

`O=C1c2c(N3CCS(=O)(=O)CC3)ccnc2CN1CCc1nc2ccccc2s1` [compound 390, 6-[2-(1,3-Benzothiazol-2-yl)ethyl]-4-(1,1-dioxo-1,4-thiazinan-4-yl)-7H-pyrrolo[3,4-b]pyridin-5-one trifluoroacetate] showed a microsomal CLint at 0.5 μM [1] of less than 100 µL/min/mg, a microsomal CLint at 0.5 μM [2] of 100 to 220 µL/min/mg and a pIC50 [3] greater than 7.00.

Work on `Cc1ccc2ccc(CCN3Cc4nccc(-c5ccncc5)c4C3=O)nc2c1` [compound 394, 6-[2-(7-Methyl-2-quinolyl)ethyl]-4-(4-pyridyl)-7H-pyrrolo[3,4-b]pyridin-5-one trifluoroacetate] yielded a microsomal CLint at 0.5 μM [1] of less than 100 µL/min/mg, a microsomal CLint at 0.5 μM [2] greater than 220 µL/min/mg and a pIC50 [3] greater than 7.00.

`COc1ccc(-c2ccncc2)c2c1C(=O)N(CCc1nc3ccccc3s1)C2` [compound 396, 2-[2-(1,3-Benzothiazol-2-yl)ethyl]-7-methoxy-4-(4-pyridyl)isoindolin-1-one] showed a microsomal CLint at 0.5 μM [1] of less than 100 µL/min/mg, a microsomal CLint at 0.5 μM [2] of 100 to 220 µL/min/mg and a pIC50 [3] greater than 7.00.

For `CC(C)c1ccc(CCN2Cc3nccc(-c4ccncc4)c3C2=O)nc1` [compound 398, 6-[2-(5-Isopropyl-2-pyridyl)ethyl]-4-(4-pyridyl)-7H-pyrrolo[3,4-b]pyridin-5-one], the microsomal CLint at 0.5 μM [1] was 100 to 220 µL/min/mg, the microsomal CLint at 0.5 μM [2] was greater than 220 µL/min/mg and the pIC50 [3] was greater than 7.00.

In the case of `COc1ccc(-c2ccnn2C)c2c1C(=O)N(CCc1nc3ccccc3s1)C2` [compound 399, 2-[2-(1,3-Benzothiazol-2-yl)ethyl]-7-methoxy-4-(2-methylpyrazol-3-yl)isoindolin-1-one], the microsomal CLint at 0.5 μM [1] was less than 100 µL/min/mg, the microsomal CLint at 0.5 μM [2] was 100 to 220 µL/min/mg and the pIC50 [3] was greater than 7.00.

In the case of `COc1ccc(-c2cc[nH]n2)c2c1C(=O)N(CCc1nc3ccccc3s1)C2` [compound 400, 2-[2-(1,3-Benzothiazol-2-yl)ethyl]-7-methoxy-4-(1H-pyrazol-3-yl)isoindolin-1-one], the microsomal CLint at 0.5 μM [1] was less than 100 µL/min/mg, the microsomal CLint at 0.5 μM [2] was greater than 220 µL/min/mg and the pIC50 [3] was greater than 7.00.

In the case of `CC(C)c1ccc(CCN2Cc3nccc(N4CCOCC4)c3C2=O)nc1` [compound 401, 6-[2-(5-Isopropyl-2-pyridyl)ethyl]-4-morpholino-7H-pyrrolo[3,4-b]pyridin-5-one], the microsomal CLint at 0.5 μM [1] was less than 100 µL/min/mg, the microsomal CLint at 0.5 μM [2] was 100 to 220 µL/min/mg and the pIC50 [3] was greater than 7.00.

`O=C1c2c(-c3ccncc3)ccnc2CN1CCc1nc2ccc(F)cc2s1` [compound 402, 6-[2-(6-Fluoro-1,3-benzothiazol-2-yl)ethyl]-4-(4-pyridyl)-7H-pyrrolo[3,4-b]pyridin-5-one] gave a microsomal CLint at 0.5 μM [1] of 100 to 220 µL/min/mg, a microsomal CLint at 0.5 μM [2] of 100 to 220 µL/min/mg and a pIC50 [3] greater than 7.00.

In the case of `O=C1c2c(-c3ccncc3)ccnc2CN1CCc1nc2ccc(Cl)cc2s1` [compound 403, 6-[2-(6-Chloro-1,3-benzothiazol-2-yl)ethyl]-4-(4-pyridyl)-7H-pyrrolo[3,4-b]pyridin-5-one], the microsomal CLint at 0.5 μM [1] was less than 100 µL/min/mg, the microsomal CLint at 0.5 μM [2] was 100 to 220 µL/min/mg and the pIC50 [3] was greater than 7.00.

Compound `O=C1c2c(N3CCOCC3)ccnc2CN1CCc1nc2ccc(F)cc2s1` [compound 405, 6-[2-(6-Fluoro-1,3-benzothiazol-2-yl)ethyl]-4-morpholino-7H-pyrrolo[3,4-b]pyridin-5-one] has a microsomal CLint at 0.5 μM [1] greater than 220 µL/min/mg, a microsomal CLint at 0.5 μM [2] of 100 to 220 µL/min/mg and a pIC50 [3] greater than 7.00.

For `Cc1cccnc1CCN1Cc2nccc(-c3ccncc3)c2C1=O` [compound 409, 6-[2-(3-Methyl-2-pyridyl)ethyl]-4-(4-pyridyl)-7H-pyrrolo[3,4-b]pyridin-5-one], the microsomal CLint at 0.5 μM [1] was less than 100 µL/min/mg, the microsomal CLint at 0.5 μM [2] was less than 100 µL/min/mg and the pIC50 [3] was 6.30 to 6.70.

In the case of `COc1ccc(NC2COC2)c2c1CN(CCc1nc3ccccc3n1C)C2=O` [compound 411, 4-Methoxy-2-[2-(1-methyl-1H-benzoimidazol-2-yl)-ethyl]-7-(oxetan-3-ylamino)-2,3-dihydro-isoindol-1-one], the microsomal CLint at 0.5 μM [1] was greater than 220 µL/min/mg, the microsomal CLint at 0.5 μM [2] was 100 to 220 µL/min/mg and the pIC50 [3] was greater than 7.00.

`O=C1c2c(-c3cc[nH]n3)ccnc2CN1CCc1cn2ccccc2n1` [compound 413, 6-(2-Imidazo[1,2-a]pyridin-2-yl-ethyl)-4-(1H-pyrazol-3-yl)-6,7-dihydro-pyrrolo[3,4-b]pyridin-5-one] showed a microsomal CLint at 0.5 μM [1] of less than 100 µL/min/mg, a microsomal CLint at 0.5 μM [2] of less than 100 µL/min/mg and a pIC50 [3] greater than 7.00.
